# Source: patent US20220288048A1, “PIMAVANSERIN FOR TREATING SCHIZOPHRENIA OR FOR TREATING PSYCHOSIS SECONDARY TO NEURODEGENERATIVE DISORDERS OR DEPRESSIVE DISORDER” (ACADIA Pharmaceuticals Inc., priority 2019, published 2022)
# Entries after “also recorded” stand apart in the source; their conditions may differ.
# Tests used:
# Format in all cases: in vivo
# [1] = system: scPCP+ARS(2h) treated male C57BL/6J mice; test: 10-min social interaction test in scPCP-treated mice given 2 h acute restraint stress (treatment-resistant model); conditions: for Able to restore sniffing or decrease avoidance (SI deficit), drug alone: risperidone 0.2, olanzapine 1, aripiprazole 1 or pimavanserin 3 mg/kg ip alone, 45 min prior to test
# Protocol: (§1) Briefly, mice were habituated to the test arena (i.e., the NOR box) for 30 minutes prior to the test day. Pairs of mice, unfamiliar to each other, received either the same treatment (e.g., vehicle and vehicle; N=10 pairs) or different treatments (e.g., vehicle; N=10 and phencyclidine (PCP) 10 mg/kg; N=10). After washout, they were placed in the test arena together for 10 minutes. A heavy object made of Plexiglas or metal was placed in the center of the test arena to quantify the time and nature of interaction of the test animals with an unfamiliar object or an unfamiliar animal. After the 10 min test phase, the object and the arena were cleaned with 70% ethanol to remove any olfactory trails. Behavior was recorded on video for subsequent blind scoring.
# (§2) The following four behaviors were scored for each animal: • a) Sniffing: A normal mouse engages in sniffing the con-specific mouse's body, including the anogenital area • b) Following: A normal mouse pursues a con-specific mouse around the arena • c) Avoiding: A normal mouse avoids the con-specific mouse and move away from a pursuing mouse if approached • d) Object Exploration: A normal mouse explores the object that is placed in the center of the test arena.
# Acute restraint stress (ARS) protocol: Mice were assigned to one of two groups: either the control group (non-stress) or the stress group. Generally, mice of the stress group were restrained in well-ventilated 50 mL tubes. After the restraint period of 1 or 2 hours, the mice were transferred into a clean animal housing cage for 1-hour interval and thereafter went through the first social interaction test (different mice are used to test different groups).
# Treatment resistant animal model: To establish this model, Acute restraint stress (ARS) was added to scPCP treatment. Two groups (vehicle+ARS; scPCP+ARS) and their controls (vehicle+saline; scPCP+saline) were used. ARS was applied for 1 or 2 hours and tested on SI 1 hour post-ARS.
# (§3) The behavioral assay, ARS protocol, and scPCP-treatment as described in Example 2 were used. To test the effect of atypical APD and pimavanserin, alone or as con-administration, in scPCP-treated mice (N=10 pairs of mice per group) given 2 h ARS, risperidone (“Risp”) was administered as 0.2 mg/kg or 0.4 mg/kg ip; olanzapine (“Olan”) as 1.0 mg/kg ip; aripiprazole (“Aripi”) as 1.0 mg/kg ip; and pimavanserin (“Pim”) as 3 mg/kg ip to scPCP+ARS(2h) treated male C57BL/6J mice 45 minutes prior to the commencement of the social interaction task in the 10 min social interaction test. Plasma levels of risperidone were measured using a Triple Quad 6500+ mass spectrometer.
# [2] = system: scPCP-treated C57BL/6J mice; test: 10-min social interaction test in scPCP-treated mice; conditions: 45 min prior to test
# Protocol: Negative symptoms model: The behavioral assay utilized to assess negative symptoms was social interaction (SI) task.
# as §1, §2
# scPCP treatment involved intraperitoneal injection (ip) of 10 mg/kg PCP to male C57BL/6J mice, twice daily (bid) for 7 days, followed by 7 days washout. To test the effect of atypical APD or pimavanserin in scPCP-treated mice (N=10 pairs of mice per group), risperidone was administered as 0.05 mg/kg ip or 0.2 mg/kg ip; and pimavanserin was administered as 3 mg/kg ip or 6 mg/kg ip to scPCP-treated mice 45 minutes prior to the commencement of the social interaction task in the 10 min social interaction test.
# [3] = Plasma levels of risperidone in scPCP and ARS-treated mice (mass spectrometer)
# Protocol: as §3
Structure (SMILES),"Able to restore sniffing or decrease avoidance (SI deficit), drug alone [1]",SI deficit produced by scPCP: time exploring the conspecific mouse ([2]; risperidone 0.05 mg/kg ip),SI deficit produced by scPCP: time exploring the conspecific mouse ([2]; risperidone 0.2 mg/kg ip),Plasma levels of risperidone ([3]; 0.2 mg/kg risperidone group),Plasma levels of risperidone ([3]; 0.2 mg/kg risperidone plus 3 mg/kg pimavanserin group),Plasma levels of risperidone ([3]; 0.4 mg/kg risperidone group),"Effect on SI deficit, doubled dose ([1]; risperidone 0.4 mg/kg ip)"
O=C1CCc2ccc(OCCCCN3CCN(c4cccc(Cl)c4Cl)CC3)cc2N1 [aripiprazole],Neither,,,,,,
Cc1nc2n(c(=O)c1CCN1CCC(c3noc4cc(F)ccc34)CC1)CCCC2 [risperidone],Neither; also recorded: ineffective,sub-effective,spent more time exploring the conspecific mouse,5.4±0.1,5.3±0.6,8.0±3.3,ineffective
